In patent US10266537B2, “3-acetylenyl-pyrazole-pyrimidine derivative, and preparation method therefor and uses thereof” (Si Chuan University, priority 2015, dated 2019) one finds IC50 data, which are given here for 24 molecules.

The term IC50 denotes the point on the concentration scale where inhibition reaches its midpoint.

The test system of one experiment is MDA-MB-435. Put plainly: Cell proliferation inhibition assay (MTT). In kind it is cell-based, human. Particulars: Homo sapiens, read-out: Proliferative inhibitory activity MDA-MB-435 (IC50 class).
The test system of a further experiment is MDA-MB-231. Put plainly: Cell proliferation inhibition assay (MTT). In kind it is cell-based, human. Particulars: Homo sapiens, read-out: Proliferative inhibitory activity MDA-MB-231 (IC50 class).

The structures appear in SMILES notation. Like-named read-outs stand apart in the source and are kept apart here.

Description for MDA-MB-435: The remaining cell lines were cultured in DMEM complete medium containing 10% fetal bovine serum (MV4-11 cells 20%), 100 U/ml penicillin, 100 μg/mL streptomycin at 5% CO2, and 37° C.
The cells were seeded in 96-well plates with 200 μL of cell suspension per well and incubated overnight in a cell culture medium with a cell concentration of 1˜2×10^4 cells/mL. The next day, the supernatant was discarded (the suspension cell was centrifuged before it) and the cells were treated with gradient concentrations of the test compound, respectively. At the same time, the drug-free negative control group and the equal volume of solvent control group, DMSO concentration of 0.1%, each dose group set up three wells, 37° C., 5% CO2 conditions. After 72 hours, add 20 μL of MTT reagent at a concentration of 5 mg/mL per well. After incubation for 2-4 h, the supernatant was discarded and 150 μL of DMSO was added to each well. […] Determine the absorbance (A) value (λ=570 nm, A value is proportional to the number of living cells), whichever is the average. […] The experiment was repeated at least 3 times. Experimental data were expressed as mean, data statistics using t test, P<0.05 for the difference was statistically significant. The inhibitory effects of the following compounds on cell proliferation were expressed as IC50 or inhibition rates.

Regarding `Cc1ccc(NC(=O)c2ccc(CN3CCN(C)CC3)cc2)cc1C#Cc1nn(C(C)C)c2ncnc(N)c12` [Compound 1], the IC50 in the experiment on MDA-MB-435 (MDA-MB-435, MTT, 72 hours) was 100 to 500 nM; with MDA-MB-231 (MDA-MB-231, MTT, 72 hours), 100 to 500 nM.
Regarding `CCn1nc(C#Cc2cc(C(=O)Nc3ccc(CN4CCN(C)CC4)c(C(F)(F)F)c3)ccc2C)c2c(N)ncnc21` [Compound 2], the IC50 in the experiment on MDA-MB-435 (MDA-MB-435, MTT, 72 hours) was less than 100 nM; in the experiment with MDA-MB-231 (MDA-MB-231, MTT, 72 hours), less than 100 nM.
As to `CC(=O)Nc1ncnc2c1c(C#Cc1cc(C(=O)Nc3ccc(CN4CCN(C)CC4)c(C(F)(F)F)c3)ccc1C)nn2C(C)C` [Compound 15], the IC50 in the experiment with MDA-MB-435 (MDA-MB-435, MTT, 72 hours) was 100 to 500 nM; with MDA-MB-231 (MDA-MB-231, MTT, 72 hours), 100 to 500 nM.
On to `Cc1ccc(C(=O)Nc2ccc(CN3CCN(C)CC3)c(C(F)(F)F)c2)cc1C#Cc1nn([C@@H]2CCOC2)c2ncnc(N)c12` [Compound 20], for which the IC50 in the experiment on MDA-MB-435 (MDA-MB-435, 72 h) is less than 100 nM; with MDA-MB-231 (MDA-MB-231, 72 h), less than 100 nM.
Turning to `Cc1ccc(C(=O)Nc2ccc(CN3CCN(C)CC3)c(C(F)(F)F)c2)cc1C#Cc1nn([C@H]2CCOC2)c2ncnc(N)c12` [Compound 21], the 50% inhibitory concentration (IC50) in the experiment with MDA-MB-435 (MDA-MB-435, 72 h) is less than 100 nM; with MDA-MB-231 (MDA-MB-231, 72 h) it was less than 100 nM.
For `Cc1ccc(NC(=O)c2ccc(C)c(C#Cc3nn(C(C)C)c4ncnc(N)c34)c2)cc1` [Compound 22], the IC50 was more than 1000 nM in the experiment with MDA-MB-435 (MDA-MB-435, MTT, 72 hours) and 100 to 500 nM in the experiment on MDA-MB-231 (MDA-MB-231, MTT, 72 hours).
Taken in the same sequence, the figures for `CCn1nc(C#Cc2cc(C(=O)Nc3ccc(CN4CCN(C)CC4)c(C(F)(F)F)c3)ccc2F)c2c(N)ncnc21` [Compound 23] were 100 to 500 nM and more than 1000 nM.
Taken in the same sequence, the figures for `CCn1nc(C#Cc2cc(C(=O)Nc3ccc(CN4CCN(C)CC4)c(C(F)(F)F)c3)ccc2C(C)C)c2c(N)ncnc21` [Compound 27] were more than 1000 nM and more than 1000 nM.
Taken in the same sequence, the figures for `Cc1ccc(NC(=O)c2ccc(CN3CCN(C)CC3)c(C(F)(F)F)c2)cc1C#Cc1nn(C)c2ncnc(N)c12` [Compound 28] were less than 100 nM and less than 100 nM.
Regarding `Cc1ccc(C(=O)Nc2cccc(C(F)(F)F)c2)cc1C#Cc1nn(C2CCN(C)CC2)c2ncnc(N)c12` [Compound 32], the IC50 is 100 to 500 nM in the experiment on MDA-MB-435 (MDA-MB-435, MTT, 72 hours) and less than 100 nM in the experiment with MDA-MB-231 (MDA-MB-231, MTT, 72 hours).
Taken in the same sequence, the figures for `CN1CCC(n2nc(C#Cc3cccc(NC(=O)c4cccc(C(F)(F)F)c4)c3)c3c(N)ncnc32)CC1` [Compound 33] were 100 to 500 nM and 500 to 1000 nM.
For the molecule `CN1CCC(n2nc(C#Cc3cc(NC(=O)c4cccc(C(F)(F)F)c4)ccc3Cl)c3c(N)ncnc32)CC1` [Compound 34], the IC50 in the experiment on MDA-MB-435 (MDA-MB-435, MTT, 72 hours) was in the range of 100 to 500 nM; in the experiment on MDA-MB-231 (MDA-MB-231, MTT, 72 hours) it was 500 to 1000 nM.
In the same order, the values of `Cc1ccc(NC(=O)Nc2cccc(C(F)(F)F)c2)cc1C#Cc1nn(C2CCN(C)CC2)c2ncnc(N)c12` [Compound 35] are less than 100 nM and 500 to 1000 nM.
For `CN1CCC(n2nc(C#Cc3cc(NC(=O)Nc4cccc(C(F)(F)F)c4)ccc3Cl)c3c(N)ncnc32)CC1` [Compound 36], the IC50 in the experiment with MDA-MB-435 (MDA-MB-435, MTT, 72 hours) lay within 100 to 500 nM; with MDA-MB-231 (MDA-MB-231, MTT, 72 hours), 500 to 1000 nM.
As for `CN1CCC(n2nc(C#Cc3cccc(C(=O)Nc4cccc(C(F)(F)F)c4)c3)c3c(N)ncnc32)CC1` [Compound 37], the IC50 in the experiment on MDA-MB-435 (MDA-MB-435, MTT, 72 hours) is 100 to 500 nM; in the experiment on MDA-MB-231 (MDA-MB-231, MTT, 72 hours), more than 1000 nM.
In the same order, the values of `CN1CCC(n2nc(C#Cc3cc(C(=O)Nc4cccc(C(F)(F)F)c4)ccc3Cl)c3c(N)ncnc32)CC1` [Compound 38] are 100 to 500 nM and 500 to 1000 nM.
Taken in the same sequence, the figures for `CN1CCC(n2nc(C#Cc3cccc(NC(=O)Nc4cccc(C(F)(F)F)c4)c3)c3c(N)ncnc32)CC1` [Compound 39] were 500 to 1000 nM and more than 1000 nM.
In the same order, the values of `Cc1ccc(NC(=O)c2cccc(C(C)(C)C)c2)cc1C#Cc1nn(C2CCN(C)CC2)c2ncnc(N)c12` [Compound 40] are less than 100 nM and less than 100 nM.
As for `Cc1ccc(NC(=O)c2ccc(C(F)(F)F)cc2)cc1C#Cc1nn(C2CCN(C)CC2)c2ncnc(N)c12` [Compound 41], the 50% inhibitory concentration (IC50) with MDA-MB-435 (MDA-MB-435, MTT, 72 hours) was more than 1000 nM; in the experiment with MDA-MB-231 (MDA-MB-231, MTT, 72 hours) it was 500 to 1000 nM.
In the same order, the values of `Cc1ccc(NC(=O)c2ccc(C)c(C(F)(F)F)c2)cc1C#Cc1nn(C2CCN(C)CC2)c2ncnc(N)c12` [Compound 42] are less than 100 nM and less than 100 nM.
In the same order, the values of `COc1ccc(C(=O)Nc2ccc(C)c(C#Cc3nn(C4CCN(C)CC4)c4ncnc(N)c34)c2)cc1` [Compound 43] are more than 1000 nM and more than 1000 nM.
Taken in the same sequence, the figures for `COc1cccc(C(=O)Nc2ccc(C)c(C#Cc3nn(C4CCN(C)CC4)c4ncnc(N)c34)c2)c1` [Compound 44] were 100 to 500 nM and 100 to 500 nM.
For `Cc1ccc(NC(=O)c2cccc(F)c2)cc1C#Cc1nn(C2CCN(C)CC2)c2ncnc(N)c12` [Compound 45], the IC50 in the experiment on MDA-MB-435 (MDA-MB-435, MTT, 72 hours) was more than 1000 nM; in the experiment with MDA-MB-231 (MDA-MB-231, MTT, 72 hours), 500 to 1000 nM.
On to `Cc1ccc(NC(=O)c2ccc(F)c(Cl)c2)cc1C#Cc1nn(C2CCN(C)CC2)c2ncnc(N)c12` [Compound 46], for which the IC50 in the experiment with MDA-MB-435 (MDA-MB-435, MTT, 72 hours) is more than 1000 nM; in the experiment with MDA-MB-231 (MDA-MB-231, MTT, 72 hours) it was 500 to 1000 nM.
